Measurements from article PMC13043538, “In vitro thyroperoxidase inhibition assessment by LC-ICP-MS-based L-tyrosine iodination assay: comparison with Amplex Ultrared assay and its modifications” (Archives of Toxicology, 2026).
pIC50: −log10 of the molar value.

Target: T1, human TPO (Homo sapiens, UniProt P07202)
T1 construct: expressed in transfected cells; host or cells: HEK293T (HEK-TPOA7 clone), whole-cell lysate in 0.1% sodium deoxycholate
T1 sequence (P07202 19-933): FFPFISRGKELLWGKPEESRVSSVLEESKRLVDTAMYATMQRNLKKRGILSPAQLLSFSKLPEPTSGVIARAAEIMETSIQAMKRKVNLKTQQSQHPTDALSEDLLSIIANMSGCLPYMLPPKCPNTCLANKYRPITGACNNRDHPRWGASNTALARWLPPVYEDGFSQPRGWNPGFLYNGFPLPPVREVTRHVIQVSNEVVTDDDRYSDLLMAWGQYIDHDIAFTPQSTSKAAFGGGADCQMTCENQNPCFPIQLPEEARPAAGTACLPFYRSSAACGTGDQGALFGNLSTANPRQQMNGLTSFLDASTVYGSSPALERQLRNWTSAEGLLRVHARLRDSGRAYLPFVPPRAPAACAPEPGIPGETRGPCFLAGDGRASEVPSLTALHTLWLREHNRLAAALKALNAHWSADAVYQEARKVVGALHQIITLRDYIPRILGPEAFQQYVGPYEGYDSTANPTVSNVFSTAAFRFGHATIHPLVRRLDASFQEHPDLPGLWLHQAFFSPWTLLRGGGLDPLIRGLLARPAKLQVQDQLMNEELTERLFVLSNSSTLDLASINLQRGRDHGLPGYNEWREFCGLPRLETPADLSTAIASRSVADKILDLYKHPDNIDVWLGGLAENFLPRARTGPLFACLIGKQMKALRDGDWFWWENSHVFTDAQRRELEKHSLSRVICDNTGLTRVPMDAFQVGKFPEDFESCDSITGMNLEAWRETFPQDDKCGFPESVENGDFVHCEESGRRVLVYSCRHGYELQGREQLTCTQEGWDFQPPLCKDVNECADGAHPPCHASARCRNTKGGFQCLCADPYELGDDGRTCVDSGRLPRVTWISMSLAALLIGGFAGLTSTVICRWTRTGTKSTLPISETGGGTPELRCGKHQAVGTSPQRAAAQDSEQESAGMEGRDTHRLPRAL
Assay: standard Amplex UltraRed (AUR) TPO assay, HEK-TPOA7 cell lysate, fluorescence
Format: biochemical
Details: no modification, read-out: IC50 (± standard deviation)
Protocol: Briefly, the cells were washed with phosphate-buffered saline (PBS), scraped, resuspended in PBS, and centrifuged for 5 min at 150 rcf. […] Lysed cells were centrifuged for 5 min at 12,000 rcf to extract the soluble protein fraction. The cell lysates were kept at − 80 °C for longer-term storage.

Oc1cc(Cl)ccc1Oc1ccc(Cl)cc1Cl [TCS, Triclosan]
pIC50: 3.70
